Data from patent US9884832B2 (priority 2011, dated 2018).

These compounds were tested against AM2 S31 (wild-type serine at position 31 in the M2 protein), influenza virus A/Udorn/72 (Influenza A virus, UniProt P0DOF5) (assay: cell-based). Details: 100 uM; Xenopus oocytes; activity range class; read-out: S31 OOcyte Inhibition at 100 uM (%).
Chain of AM2 S31 (wild-type serine at position 31 in the M2 protein), influenza virus A/Udorn/72 (P0DOF5 whole entry, looked up): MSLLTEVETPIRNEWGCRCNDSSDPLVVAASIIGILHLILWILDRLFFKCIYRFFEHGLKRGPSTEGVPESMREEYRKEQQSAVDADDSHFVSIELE
Compound `Brc1cnc(CNC23CC4CC(CC(C4)C2)C3)[nH]1` [Example 89a, Adamantan-1-yl-(5-bromo-1H-imidazol-2-ylmethyl)-amine] has an inhibition at 100 µM of 31 to 95%.
With `Cc1cccc2nc(CNC34CC5CC(CC(C5)C3)C4)[nH]c12` [Example 184a, Adamantan-1-yl-(7-methyl-1H-benzoimidazol-2-ylmethyl)-amine] the inhibition at 100 µM was 0 to 30%.
`C(NC12CC3CC(CC(C3)C1)C2)c1noc(C2CC2)n1` [Example 166a] showed an inhibition at 100 µM of 0 to 30%.
With `O=C1CCCN1c1ccc(CNC23CC4CC(CC(C4)C2)C3)cc1` [Example 45a, 1-(4-((adamantan-1-ylamino)methyl)phenyl)pyrrolidin-2-one] the inhibition at 100 µM was 0 to 30%.
With `Cc1cc(CNC23CC4CC(CC(C4)C2)C3)no1` [Example 95a, N-((5-methylisoxazol-3-yl)methyl)adamantan-1-amine] the inhibition at 100 µM was 31 to 95%.
With `CCc1nc(CNC23CC4CC(CC(C4)C2)C3)no1` [Example 165a] the inhibition at 100 µM was 31 to 95%.
With `c1csc(-c2ccc(CNC3C4CC5CC(C4)CC3C5)s2)c1` (stereo not shown) [Example 205a, N-([2,2′-bithiophen]-5-ylmethyl)adamantan-2-amine] the inhibition at 100 µM was 0 to 30%.
`COc1ccc(-c2ccc(CNC34CC5CC(CC(C5)C3)C4)s2)cc1` [Example 113a, N-((5-(4-methoxyphenyl)thiophen-2-yl)methyl)adamantan-1-amine] showed an inhibition at 100 µM of 0 to 30%.
With `Cc1ccc(CNC23CC4CC(CC(C4)C2)C3)s1` [Example 78a, N-((5-methylthiophen-2-yl)methyl)adamantan-1-amine] the inhibition at 100 µM was 31 to 95%.
With `c1cc(C2CC2)ccc1CNC12CC3CC(CC(C3)C1)C2` [Example 9a, N-(4-Cyclopropylbenzyl)adamantan-1-amine] the inhibition at 100 µM was 31 to 95%.
`c1c[nH]c(CNC23CC4CC(CC(C4)C2)C3)c1` [Example 72a, Adamantan-1-yl-(1H-pyrrol-2-ylmethyl)-amine] gave an inhibition at 100 µM of 31 to 95%.
Work on `OC12CC3CC(C1)CC(NCc1ccc(Cl)s1)(C3)C2` [Example 189a, 3-[(5-Chloro-thiophen-2-ylmethyl)-amino]adamantan-1-ol] yielded an inhibition at 100 µM of 0 to 30%.
With `c1cc(CNC23CC4CC(CC(C4)C2)C3)co1` [Example 66a, Adamantan-1-yl-furan-3-ylmethyl-amine] the inhibition at 100 µM was 31 to 95%.
In the case of `Brc1ccc(CNC23CC4CC(CC(C4)C2)C3)nc1` [Example 54a, Adamantan-1-yl-(5-bromo-pyridin-2-ylmethyl)-amine], the inhibition at 100 µM is reported as 31 to 95%.
Work on `c1ccc(-c2nnc(CNC34CC5CC(CC(C5)C3)C4)o2)cc1` [Example 115a, N-((5-phenyl-1,3,4-oxadiazol-2-yl)methyl)adamantan-1-amine] yielded an inhibition at 100 µM of 0 to 30%.
Compound `Cc1ccc(CNC23CC4CC(CC(C4)C2)C3)o1` [Example 67a] has an inhibition at 100 µM of 31 to 95%.
With `c1c(CNC23CC4CC(CC(C4)C2)C3)noc1CN1CCOCC1` [Example 106a, N-((5-(morpholinomethyl)isoxazol-3-yl)methyl)adamantan-1-amine] the inhibition at 100 µM was 0 to 30%.
For `CC(NC12CC3CC(CC(C3)C1)C2)c1cc2ccccc2s1` (stereo not shown) [Example 178a], the inhibition at 100 µM was 31 to 95%.
With `Clc1ccc(CNC23CC4CC(CC(C4)C2)C3)s1` [Example 79a, N-((5-chlorothiophen-2-yl)methyl)adamantan-1-amine] the inhibition at 100 µM was 31 to 95%.
`CSc1ccc(CNC23CC4CC(CC(C4)C2)C3)s1` [Example 90a] was tested, and the inhibition at 100 µM was 31 to 95%.
With `OC12CC3CC(C1)CC(NCc1ccc(-c4ccccc4)s1)(C3)C2` [Example 191a, 3-[(5-Phenyl-thiophen-2-ylmethyl)-amino]adamantan-1-ol] the inhibition at 100 µM was 0 to 30%.
Work on `c1csc(-c2nnc(CNC34CC5CC(CC(C5)C3)C4)o2)c1` [Example 147a, Adamantan-1-yl-(5-thiophen-2-yl-[1,3,4]oxadiazol-2-ylmethyl)-amine] yielded an inhibition at 100 µM of 0 to 30%.
`COc1ccccc1COc1ccc(CNC23CC4CC(CC(C4)C2)C3)cc1` [Example 15a, Adamantan-1-yl-[4-(2-methoxy-benzyloxy)-benzyl]-amine] was tested, and the inhibition at 100 µM was 0 to 30%.
`c1coc(CNC23CC4CC(CC(C4)C2)C3)c1` [Example 69a, Adamantan-1-yl-furan-2-ylmethyl-amine] gave an inhibition at 100 µM of 31 to 95%.
`CCc1ccc(CNC23CC4CC(CC(C4)C2)C3)s1` [Example 98a, N-((5-ethylthiophen-2-yl)methyl)adamantan-1-amine] was tested, and the inhibition at 100 µM was 31 to 95%.

Same assay, conditions: Table 1; 100 uM; Xenopus oocytes, pH 5.5, -20 mV; read-out: S31 OOcyte Inhibition at 100 uM (%)
In the case of `Oc1ccc(CNC2C3CC4CC(C3)CC2C4)cc1` (stereo not shown) [Example 99, 4-(Adamantan-2-ylaminomethyl)-phenol], the inhibition at 100 µM is reported as 31 to 95%.
In the case of `c1cn(-c2ccc(CNC34CC5CC(CC(C5)C3)C4)cc2)cn1` [Example 36, Adamantan-1-yl-(4-imidazol-1-yl-benzyl)-amine], the inhibition at 100 µM is reported as 0 to 30%.
With `Oc1ccc(CNC23CC4CC(CC(C4)C2)C3)c(O)c1` [Example 46, 4-(Adamantan-1-ylaminomethyl)-benzene-1,3-diol] the inhibition at 100 µM was 31 to 95%.
In the case of `CC1(C)C2CCC(CNCc3ccc(O)cc3O)C1C2` (stereo not shown) [Example 114, 4-{[(6,6-Dimethyl-bicyclo[3.1.1]hept-2-ylmethyl)-amino]methyl}-benzene-1,3-diol], the inhibition at 100 µM is reported as 31 to 95%.
`Oc1ccc(CNC2C3CC4CC(C3)CC2C4)cc1O` (stereo not shown) [Example 101, 4-(Adamantan-2-ylaminomethyl)-benzene-1,2-diol] showed an inhibition at 100 µM of 31 to 95%.
Compound `OC1CCN(C2C3CC4CC(C3)CC2C4)CC1` (stereo not shown) [Example 104, 1-Adamantan-2-yl-piperidin-4-ol] has an inhibition at 100 µM of 0 to 30%.
`Oc1c(F)cc(CNC23CC4CC(CC(C4)C2)C3)cc1Cl` [Example 68, 4-(Adamantan-1-ylaminomethyl)-2-chloro-6-fluoro-phenol] gave an inhibition at 100 µM of 31 to 95%.
With `Oc1ccc(CNC23CC4CC(CC2C4)C3)c(O)c1` [Example 111, 4-[(Hexahydro-2,5-methano-pentalen-3a-ylamino)-methyl]-benzene-1,3-diol] the inhibition at 100 µM was 31 to 95%.

Same assay, conditions: Table 3; 100 uM; Xenopus oocytes, pH 5.5, -20 mV; read-out: S31 OOcyte Inhibition at 100 uM (%)
Compound `c1nc(N2CCOCC2)ncc1CNC12CC3CC(CC(C3)C1)C2` [Example 57b, N-((2-morpholinopyrimidin-5-yl)methyl)adamantan-1-amine] has an inhibition at 100 µM of 0 to 30%.
With `COCc1nc(CNC23CC4CC(CC(C4)C2)C3)no1` [Example 23b, N-((5-(methoxymethyl)-1,2,4-oxadiazol-3-yl)methyl)adamantan-1-amine] the inhibition at 100 µM was 0 to 30%.
`C1COC(c2nc(CNC34CC5CC(CC(C5)C3)C4)no2)C1` (stereo not shown) [Example 21b, N-((5-(tetrahydrofuran-2-yl)-1,2,4-oxadiazol-3-yl)methyl)adamantan-1-amine] showed an inhibition at 100 µM of 0 to 30%.
For `OC12CC3CC(C1)CC(NCc1noc(-c4ccccc4)n1)(C3)C2` [Example 84b, (1s,3r,5R,7S)-3-(((5-phenyl-1,2,4-oxadiazol-3-yl)methyl)amino)adamantan-1-61], the inhibition at 100 µM was 0 to 30%.
`COc1ccccc1-c1nc(CNC23CC4CC(CC(C4)C2)C3)no1` [Example 15b, N-((5-(2-methoxyphenyl)-1,2,4-oxadiazol-3-yl)methyl)adamantan-1-amine] showed an inhibition at 100 µM of 0 to 30%.
`Oc1cc(Cl)ccc1CNC12CC3CC(CC(C3)C1)C2` [Example 9b, 2-((-Adamantan-1-ylamino)methyl)-5-chlorophenol] gave an inhibition at 100 µM of 31 to 95%.
`Clc1ccccc1-c1ccc(CNC23CC4CC(CC(C4)C2)C3)nc1` [Example 72b, Adamantan-1-yl-[5-(2-chloro-phenyl)-pyridin-2-ylmethyl]-amine] was tested, and the inhibition at 100 µM was 0 to 30%.
